Where no end group is shown, it is not given here.
Assays:
S. aureus Mu50 = test: Time-kill (bactericidal) curve; type: cell-based, Staphylococcus aureus MRSA; details: four times MIC, TSB, 37°C
Description: (§1) The antibacterial activity was evaluated using a standard MIC and MBC assay according to the National Committee for Clinical Laboratory Standards (NCCLS). MIC, MBC assay, and time-kill curves for the optimal peptide are provided in the Supplementary Materials.
(§2) The bactericidal curve of the optimal peptide was further determined. […] Each test was replicated at least 3 times.

E. coli K88 [1] = test: LPS binding assay (MIC with exogenous LPS); type: cell-based, Escherichia coli; details: increasing addition of external LPS, 37°C 24 h, 492 nm
Description: LPS (Sigma, USA) and LTA (Sigma, USA) were dissolved in water at a concentration of 5 mg/mL. Fifty microliters of DiPGLa-H with a concentration gradient of 1–64 μM and 50 µL of LPS or LTA master mix with different concentration gradients were added to the 96-well plate in 2-fold dilution, and finally, 100 µL of diluted E. coli K88 or S. aureus Mu50 was added, incubated at 37°C in a constant temperature incubator for 24 h. The MIC was determined by absorbance at 492 nm using an enzyme marker as the lowest peptide concentration that inhibited 95% of the bacterial growth.

Gram-positive bacteria = test: Geometric mean MIC and therapeutic index, Gram-positive; type: cell-based; details: geometric mean of the peptide MICs against Gram-positive strains
Description: as §1
(§3) Antimicrobial Activity Assays. The antibacterial activity of the peptides was determined using a method designed from the National Committee for Clinical Laboratory Standards (NCCLS) in the United States. All the strains used in the experiment are preserved in the laboratory. Briefly, log phase bacterial cells were diluted in MHB to a final concentration of 0.5-1x10^5 CFU/mL. Subsequently, 50μL of different concentrations of polypeptides were incubated with 50 μL of bacterial solution in sterile 96-well plates. In the minimum inhibitory concentration (MIC) assay, the plate was incubated at 37°C for 24 h, and the minimum inhibitory concentration (MIC) was determined by the absorbance at 492 nm of the microplate reader, and the minimum inhibitory concentration (MIC) inhibited 95% of bacteria grow. Determination of minimum bactericidal concentration: the plate was incubated at 37°C for 4 hours, 50 μL of the mixture was taken out of each well, diluted with an appropriate amount of PBS, smeared on the agar plate, and cultured overnight. Colonies were counted and the initial CFU/well was retrospectively calculated the following day. The lowest concentration of peptide that kills 99.9% of bacterial cells is the minimum bactericidal concentration (µM), Each test was replicated at least 3 times.

E. coli ATCC25922 = type: cell-based, Escherichia coli
Description: as §1
as §3, with “[…],” for “the plate was incubated at 37°C for 24 h,”

S. aureus ATCC29213 = type: cell-based, Staphylococcus aureus
Description: as §1, §3

[2] = system: A. baumannii ATCC19606 biofilm; test: Anti-biofilm assay (crystal violet); type: cell-based, Acinetobacter baumannii
Description: (§4) The anti-biofilm activity of DiPGLa-H was evaluated using a crystal violet staining method. Briefly, 100 µL of bacterial suspension at 1 × 10^6 CFU/mL was incubated with DiPGLa-H (0–64 µM) for 48 h. The biofilm formed was stained with 1% crystal violet, and the absorbance was measured at 595 nm. The biofilm formation and mature biofilm removal assays were conducted. For biofilm formation, a bacterial suspension was incubated with DiPGLa-H, and biofilm content was quantified. To assess mature biofilm removal, pre-formed biofilms were treated with DiPGLa-H for 24 h, followed by quantification. Detailed Protocol in Supplementary Materials.
(§5) To test the ability of DiPGLa-H to […] on the test bacteria, a single colony was inoculated in MHB medium and incubated overnight at 37 °C and 180 r/min, and 1% of the bacterial suspension was taken and continued to be amplified and incubated for 2 h. […] The biofilm content was analyzed by measuring the absorbance value at 595 nm, and anhydrous ethanol was used as a blank control. […]

[3] = system: P. aeruginosa ATCC27853 biofilm; test: Anti-biofilm assay (crystal violet); type: cell-based, Pseudomonas aeruginosa
Description: as §4, §5

E. coli K88 biofilm = test: Anti-biofilm assay (crystal violet); type: cell-based, Escherichia coli
Description: as §4, §5

E. coli K88 [4] = test: Time-kill (bactericidal) curve; type: cell-based, Escherichia coli; details: four times MIC, TSB, 37°C
Description: as §1, §2

[5] = 1×10^6 CFU/mL, DiPGLa-H 0-64 µM, 48 h, crystal violet, 595 nm
[6] = pre-formed biofilm treated with DiPGLa-H 0-64 µM for 24 h

With “KIAKVALKALKIAKVALKAL-NH2 (C-terminus assumed) [DiPGLa-H]” the “time to complete eradication of S. aureus Mu50” value (S. aureus Mu50) was 6 h, the “reduction of antibacterial activity by external LPS” value (E. coli K88 [1]) was 16 fold and the “GMMIC Gram-positive” value (Gram-positive bacteria) was 5.66 µM. It also gave an MBC E. coli ATCC25922 (E. coli ATCC25922; ATCC25922, 4 h) of 8 µM, an MIC E. coli ATCC25922 (E. coli ATCC25922; ATCC25922, 24 h) of 8 µM and an MBC S. aureus ATCC29213 (S. aureus ATCC29213; ATCC29213, 4 h) of 4 µM. For the same substance, the MIC S. aureus ATCC29213 (S. aureus ATCC29213; ATCC29213, 24 h) was 4 µM, the “concentration for effective inhibition of biofilm formation” value [2, 5] was “above 4 µM” and the “concentration effectively eradicating biofilms” value [2, 6] was “above 16 µM”. For the same substance, the “inhibition of biofilm formation” value [3, 5] was “inhibition at higher concentrations”, the biofilm elimination capacity ([3]; pre-formed biofilm treated with DiPGLa-H for 24 h, similar concentrations (above 16 µM)) was “less pronounced” and the “concentration for effective inhibition of biofilm formation” value (E. coli K88 biofilm; [5]) was “above 4 µM”. The “concentration effectively eradicating biofilms” value (E. coli K88 biofilm; [6]) was “above 16 µM” and the “time to complete eradication of E. coli K88” value (E. coli K88 [4]) was at most 30 min.
